Drawing on ChEMBL document CHEMBL5291721, “A preclinical secondary pharmacology resource illuminates target-adverse drug reaction associations of marketed drugs” (Nat Commun, 2023), this text covers AC50 for 15 molecules.

Some results are limits rather than exact numbers.

One may read the AC50 as the concentration at which the activity in the assay is half-maximal. Read a high AC50 as weaker potency.

Assay [1] has as its target T1, Adenosine receptor A1 (Homo sapiens, UniProt P30542).
T1 sequence (P30542 whole entry): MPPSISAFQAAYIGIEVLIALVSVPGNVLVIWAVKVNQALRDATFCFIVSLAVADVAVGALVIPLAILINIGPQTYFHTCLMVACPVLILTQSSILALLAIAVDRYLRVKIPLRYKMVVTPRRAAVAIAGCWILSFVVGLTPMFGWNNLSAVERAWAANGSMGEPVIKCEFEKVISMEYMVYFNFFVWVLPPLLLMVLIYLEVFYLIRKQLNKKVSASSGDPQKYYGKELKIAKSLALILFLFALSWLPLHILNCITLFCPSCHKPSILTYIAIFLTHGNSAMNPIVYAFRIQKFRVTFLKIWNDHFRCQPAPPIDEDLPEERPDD

The target in assay [2] is T2, Adenosine receptor A3 (Homo sapiens, UniProt P0DMS8).
T2 sequence (P0DMS8 whole entry): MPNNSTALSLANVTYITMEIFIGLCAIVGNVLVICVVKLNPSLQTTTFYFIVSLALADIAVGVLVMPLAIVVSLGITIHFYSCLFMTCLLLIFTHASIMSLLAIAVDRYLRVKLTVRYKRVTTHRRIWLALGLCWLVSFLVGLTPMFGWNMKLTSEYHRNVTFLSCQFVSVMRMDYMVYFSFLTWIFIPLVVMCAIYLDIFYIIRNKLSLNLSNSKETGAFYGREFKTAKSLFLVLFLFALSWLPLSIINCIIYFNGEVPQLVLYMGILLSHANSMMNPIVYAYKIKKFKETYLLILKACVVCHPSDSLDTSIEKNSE

The target in assay [3] is T3, Alpha-1A adrenergic receptor (Homo sapiens, UniProt P35348).
T3 sequence (P35348 whole entry): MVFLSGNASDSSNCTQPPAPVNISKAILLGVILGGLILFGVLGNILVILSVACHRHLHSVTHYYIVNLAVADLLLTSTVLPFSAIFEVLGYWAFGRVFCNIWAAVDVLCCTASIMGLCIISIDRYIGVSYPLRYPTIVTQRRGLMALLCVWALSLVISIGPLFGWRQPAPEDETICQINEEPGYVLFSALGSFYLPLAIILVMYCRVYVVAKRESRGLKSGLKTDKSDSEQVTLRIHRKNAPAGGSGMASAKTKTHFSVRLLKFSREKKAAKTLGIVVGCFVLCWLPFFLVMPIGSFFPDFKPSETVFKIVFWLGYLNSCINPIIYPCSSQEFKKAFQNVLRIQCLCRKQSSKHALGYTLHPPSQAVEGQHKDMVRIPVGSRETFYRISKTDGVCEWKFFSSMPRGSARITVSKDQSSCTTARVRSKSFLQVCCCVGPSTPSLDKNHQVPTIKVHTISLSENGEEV
The assay is classed as functional, cell-based.

Assay [4] addresses T4, Alpha-2A adrenergic receptor (Homo sapiens, UniProt P08913).
T4 sequence (P08913 whole entry): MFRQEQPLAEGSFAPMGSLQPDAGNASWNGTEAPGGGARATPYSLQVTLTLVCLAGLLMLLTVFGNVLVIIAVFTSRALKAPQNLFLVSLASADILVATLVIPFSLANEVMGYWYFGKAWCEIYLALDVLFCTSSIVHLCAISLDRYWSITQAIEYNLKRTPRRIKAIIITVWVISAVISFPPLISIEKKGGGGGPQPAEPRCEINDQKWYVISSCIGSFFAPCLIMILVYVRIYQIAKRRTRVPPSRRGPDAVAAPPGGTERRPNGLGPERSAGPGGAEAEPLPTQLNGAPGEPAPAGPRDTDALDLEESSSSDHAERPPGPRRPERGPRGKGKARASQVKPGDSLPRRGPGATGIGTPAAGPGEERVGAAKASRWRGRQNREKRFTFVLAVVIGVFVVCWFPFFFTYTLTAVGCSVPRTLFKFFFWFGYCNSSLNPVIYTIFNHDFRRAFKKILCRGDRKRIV
The assay is classed as functional, cell-based.

Assay [5] concerns the target T5, Muscarinic acetylcholine receptor M1 (Homo sapiens, UniProt P11229).
T5 sequence (P11229 whole entry): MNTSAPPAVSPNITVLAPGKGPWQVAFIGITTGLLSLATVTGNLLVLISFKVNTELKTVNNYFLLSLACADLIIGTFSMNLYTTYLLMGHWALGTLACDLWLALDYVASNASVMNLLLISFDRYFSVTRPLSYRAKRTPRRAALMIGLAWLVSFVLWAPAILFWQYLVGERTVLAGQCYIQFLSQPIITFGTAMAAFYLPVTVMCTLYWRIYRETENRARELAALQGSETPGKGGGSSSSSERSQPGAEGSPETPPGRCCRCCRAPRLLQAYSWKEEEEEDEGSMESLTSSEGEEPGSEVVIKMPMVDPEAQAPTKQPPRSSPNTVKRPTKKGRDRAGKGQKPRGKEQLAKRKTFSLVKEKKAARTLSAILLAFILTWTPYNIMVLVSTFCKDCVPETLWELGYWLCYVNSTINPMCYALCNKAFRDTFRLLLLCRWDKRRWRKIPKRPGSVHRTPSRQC
The assay is classed as functional.

The target in assay [6] is T6, 5-hydroxytryptamine receptor 3A (Homo sapiens, UniProt P46098).
T6 sequence (P46098 whole entry): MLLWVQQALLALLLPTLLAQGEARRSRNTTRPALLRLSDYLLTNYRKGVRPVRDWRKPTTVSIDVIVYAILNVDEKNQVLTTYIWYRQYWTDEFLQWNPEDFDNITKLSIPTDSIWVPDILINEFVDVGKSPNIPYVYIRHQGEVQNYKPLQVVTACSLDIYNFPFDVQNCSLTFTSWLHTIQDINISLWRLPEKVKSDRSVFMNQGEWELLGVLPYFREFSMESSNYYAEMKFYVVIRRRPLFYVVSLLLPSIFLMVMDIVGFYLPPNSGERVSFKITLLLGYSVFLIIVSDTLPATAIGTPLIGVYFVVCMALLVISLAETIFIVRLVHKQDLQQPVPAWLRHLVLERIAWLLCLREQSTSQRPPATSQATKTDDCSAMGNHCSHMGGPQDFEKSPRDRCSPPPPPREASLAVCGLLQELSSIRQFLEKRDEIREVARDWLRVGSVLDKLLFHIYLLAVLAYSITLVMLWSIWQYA
The format is functional.

For assay [7], the target named is Melanocortin receptor 3 (Homo sapiens, UniProt P41968).
Sequence of Melanocortin receptor 3 (P41968 whole entry): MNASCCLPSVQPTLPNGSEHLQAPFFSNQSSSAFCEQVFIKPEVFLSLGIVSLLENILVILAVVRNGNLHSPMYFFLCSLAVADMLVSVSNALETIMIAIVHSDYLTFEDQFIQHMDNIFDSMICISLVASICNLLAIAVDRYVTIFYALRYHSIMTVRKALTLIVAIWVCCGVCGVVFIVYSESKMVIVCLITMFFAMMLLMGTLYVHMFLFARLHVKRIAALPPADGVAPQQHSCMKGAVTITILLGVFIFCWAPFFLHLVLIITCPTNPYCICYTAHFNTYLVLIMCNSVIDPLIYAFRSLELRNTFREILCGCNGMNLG
Assay [8] deals with Sodium-dependent noradrenaline transporter (Homo sapiens, UniProt P23975).
Sequence of Sodium-dependent noradrenaline transporter (P23975 whole entry): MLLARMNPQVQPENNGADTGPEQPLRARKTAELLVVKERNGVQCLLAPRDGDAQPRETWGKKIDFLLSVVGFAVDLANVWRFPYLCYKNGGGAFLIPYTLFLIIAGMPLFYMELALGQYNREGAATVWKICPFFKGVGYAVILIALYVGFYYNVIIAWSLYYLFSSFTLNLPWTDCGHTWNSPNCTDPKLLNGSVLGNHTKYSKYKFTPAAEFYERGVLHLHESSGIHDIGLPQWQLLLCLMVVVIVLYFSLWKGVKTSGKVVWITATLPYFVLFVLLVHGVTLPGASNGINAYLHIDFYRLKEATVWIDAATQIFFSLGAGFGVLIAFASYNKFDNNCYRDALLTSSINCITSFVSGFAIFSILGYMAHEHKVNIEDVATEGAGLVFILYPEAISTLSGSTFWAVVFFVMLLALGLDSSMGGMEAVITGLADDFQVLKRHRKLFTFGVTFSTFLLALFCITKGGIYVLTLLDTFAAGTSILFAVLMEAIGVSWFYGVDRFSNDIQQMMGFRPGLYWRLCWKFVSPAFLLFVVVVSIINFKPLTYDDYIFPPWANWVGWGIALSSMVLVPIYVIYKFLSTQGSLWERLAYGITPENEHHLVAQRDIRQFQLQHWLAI
Assay [9] concerns the target T3, Alpha-1A adrenergic receptor. The format is functional, cell-based. The source holds these as a separate data set.
Also: assay procedure not described here.

Take `CC(=N)N1CC[C@H](SC2=C(C(=O)O)N3C(=O)[C@H]([C@@H](C)O)[C@H]3C2)C1`: the half-maximal activity concentration (AC50) is over 300 µM in assay [1]; 140 µM in assay [2]; over 300 µM in assay [3]; over 300 µM in assay [4]; 68 µM in [5]; over 300 µM in [6]. The AC50 in assay [7], in assay [8] and in assay [9] was over 300 µM each time.
Consider `O=C1CN2Cc3c(ccc(Cl)c3Cl)N=C2N1` [ANAGRELIDE], for which the concentration at half-maximal activity (AC50) in assay [1] was over 30 µM; in [2], over 30 µM; in [3] it was over 30 µM; in assay [4], over 10 µM; in assay [5], over 10 µM; in [6], over 30 µM. Moreover, the concentration at half-maximal activity (AC50) in assay [7], in [8] and in assay [9] was over 30 µM throughout.
For the molecule `C=C(C)[C@@H]1CCC(C)=C[C@H]1c1c(O)cc(CCCCC)cc1O` [CANNABIDIOL], the AC50 in assay [1] was over 30 µM; in assay [3], over 30 µM; in assay [4], over 10 µM; in assay [5] it was over 30 µM; in assay [6] it was over 30 µM; in assay [7], 25 µM. Further, the half-maximal activity concentration (AC50) is 17.3 µM in assay [8] and over 10 µM in [9].
Regarding `CNCC[C@H](Oc1cccc2ccccc12)c1cccs1` [DULOXETINE], the half-maximal activity concentration (AC50) in assay [1] is over 30 µM; in assay [2], over 30 µM; in assay [4], over 10 µM; in assay [5], over 10 µM; in [6] it was 14 µM; in assay [7] it was 22.7 µM.
For `CCC(=O)O[C@@H](O[P@](=O)(CCCCc1ccccc1)CC(=O)N1C[C@H](C2CCCCC2)C[C@H]1C(=O)O)C(C)C` [FOSINOPRIL], the half-maximal activity concentration (AC50) in assay [3], in assay [4], in assay [5], in assay [6] and in assay [9] was over 30 µM in each case.
On to `CC(=O)/N=c1/sc(S(N)(=O)=O)nn1C` [METHAZOLAMIDE], for which the concentration at half-maximal activity (AC50) in assay [1] was over 10 µM; in [2], over 10 µM; in [4] it was over 10 µM; in [5], over 10 µM; in assay [6] it was over 30 µM; in assay [7] it was over 10 µM. The molecule further gave an AC50 in assay [8] of over 10 µM.
Turning to `CNC[C@H](O)c1cccc(O)c1` [PHENYLEPHRINE], the AC50 in [1] was over 30 µM; in assay [2] it was over 30 µM; in assay [5], over 10 µM; in assay [6], over 10 µM; in assay [7], over 30 µM; in [8], over 10 µM.
For `CC(C)C[C@H](CN)CC(=O)O` [PREGABALIN], the AC50 in assay [1], in assay [2], in assay [4], in assay [5], in assay [6] and in assay [7] was over 30 µM in each case. Besides, the AC50 in assay [8] is over 30 µM.
`CNC(=O)c1cc(Oc2ccc(NC(=O)Nc3ccc(Cl)c(C(F)(F)F)c3)c(F)c2)ccn1` [REGORAFENIB]: the half-maximal activity concentration (AC50) is 2.51 µM in assay [2]; over 30 µM in assay [3]; over 30 µM in assay [5]; over 30 µM in assay [7]; 21.9 µM in [8]; over 30 µM in assay [9].
Regarding `CCCN(CCc1cccs1)[C@H]1CCc2c(O)cccc2C1` [ROTIGOTINE], the AC50 was over 30 µM in assay [1]; 24 µM in assay [2]; over 10 µM in assay [4]; 25 µM in assay [5]; over 30 µM in assay [6]; over 30 µM in assay [7]. For the same molecule, in assay [8], the half-maximal activity concentration (AC50) came to 5.1 µM.
On to `CC[C@H]1OC(=O)[C@H](C)[C@@H](O[C@H]2C[C@@](C)(OC)[C@@H](O)[C@H](C)O2)[C@H](C)[C@@H](O[C@@H]2O[C@H](C)C[C@H](N(C)C)[C@H]2O)[C@](C)(O)C[C@@H](C)/C(=N\OCOCCOC)[C@H](C)[C@@H](O)[C@]1(C)O` [ROXITHROMYCIN], for which the AC50 in assay [1], in assay [2], in assay [3], in [4], in [6] and in assay [7] was over 30 µM in each case. The AC50 in assay [8] and in assay [9] was over 30 µM in each case.
As for `CC(=O)S[C@@H]1CC2=CC(=O)CC[C@]2(C)[C@H]2CC[C@@]3(C)[C@@H](CC[C@@]34CCC(=O)O4)[C@H]12` [SPIRONOLACTONE], the AC50 in assay [1], in assay [2], in assay [3], in [4], in [6] and in [7] was over 30 µM each time. For the same molecule, the concentration at half-maximal activity (AC50) in [8] and in [9] was over 30 µM each time.
With `CCCCNc1ccc(C(=O)OCCN(C)C)cc1` [TETRACAINE], the AC50 in assay [1] is over 30 µM; in assay [2] it was over 30 µM; in assay [3], over 30 µM; in [4], over 10 µM; in assay [6] it was over 10 µM; in assay [7], over 30 µM. The figures for the concentration at half-maximal activity (AC50) in [8] and in assay [9] were over 10 µM and over 30 µM, respectively.
In the case of `CN1CCN(CCCN2c3ccccc3Sc3ccc(S(=O)(=O)N(C)C)cc32)CC1` [THIOPROPERAZINE], the AC50 in assay [3] was over 30 µM; in [4], over 30 µM; in [5], 12 µM; in assay [6], over 30 µM; in assay [9], 1 µM.
Consider `CC1(C)O[C@@H]2[C@@H](CO[C@@]3(COS(N)(=O)=O)OC(C)(C)O[C@@H]23)O1` [TOPIRAMATE], for which the AC50 in assay [1] is over 30 µM; in [2] it was over 30 µM; in assay [4], over 10 µM; in [5], over 10 µM; in assay [6] it was over 10 µM; in [7], over 30 µM. For the same molecule, the AC50 in assay [8] is over 10 µM.
